Assay [1] deals with FAK (Homo sapiens (Human), UniProt Q05397). In words: Biochemical assay for FAK activity (LANCE TR-FRET, ULight-poly Glu,Ala,Tyr substrate). The settings on record: GST-tagged FAK, 120 min reaction. In short, it runs like this:
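GST-tagged FAK (2.5 nM working stock) with ULight-poly Glu,Ala,Tyr (666 nM stock) and ATP (33.3 μM stock) in Tris pH 7.5/MgCl2/DTT/CHAPS buffer with BSA, 120 min; EDTA-quenched. Phosphorylation read by TR-FRET with Eu-anti-phosphotyrosine (PY20) antibody after 60 min. Compounds tested as 12-point 3-fold dilutions.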
On the technique in general: TR-FRET usually uses a lanthanide donor and a delayed reading to cut background.

The target of assay [2] is PYK2 (Homo sapiens (Human), UniProt Q14289). Put plainly: Biochemical assay for PYK2 activity (LANCE TR-FRET, ULight-poly Glu,Ala,Tyr substrate). The settings on record: GST-tagged PYK2, 40 min reaction. In short, it runs like this: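 GST-tagged human PYK2 (2 nM working stock) with ULight-poly Glu,Ala,Tyr (1:1:1) peptide (666 nM working stock) and ATP (46.6 μM working stock) in 40 mM Tris pH 7.5, MgCl2, 1 mM DTT, 1 mM CHAPS; 40 min reaction, EDTA quench. Phosphotyrosine read by LANCE Eu-anti-phosphotyrosine (PY20) TR-FRET after 60 min; 12-point 3-fold compound dilutions.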
Sequence of PYK2 (Q14289 whole entry): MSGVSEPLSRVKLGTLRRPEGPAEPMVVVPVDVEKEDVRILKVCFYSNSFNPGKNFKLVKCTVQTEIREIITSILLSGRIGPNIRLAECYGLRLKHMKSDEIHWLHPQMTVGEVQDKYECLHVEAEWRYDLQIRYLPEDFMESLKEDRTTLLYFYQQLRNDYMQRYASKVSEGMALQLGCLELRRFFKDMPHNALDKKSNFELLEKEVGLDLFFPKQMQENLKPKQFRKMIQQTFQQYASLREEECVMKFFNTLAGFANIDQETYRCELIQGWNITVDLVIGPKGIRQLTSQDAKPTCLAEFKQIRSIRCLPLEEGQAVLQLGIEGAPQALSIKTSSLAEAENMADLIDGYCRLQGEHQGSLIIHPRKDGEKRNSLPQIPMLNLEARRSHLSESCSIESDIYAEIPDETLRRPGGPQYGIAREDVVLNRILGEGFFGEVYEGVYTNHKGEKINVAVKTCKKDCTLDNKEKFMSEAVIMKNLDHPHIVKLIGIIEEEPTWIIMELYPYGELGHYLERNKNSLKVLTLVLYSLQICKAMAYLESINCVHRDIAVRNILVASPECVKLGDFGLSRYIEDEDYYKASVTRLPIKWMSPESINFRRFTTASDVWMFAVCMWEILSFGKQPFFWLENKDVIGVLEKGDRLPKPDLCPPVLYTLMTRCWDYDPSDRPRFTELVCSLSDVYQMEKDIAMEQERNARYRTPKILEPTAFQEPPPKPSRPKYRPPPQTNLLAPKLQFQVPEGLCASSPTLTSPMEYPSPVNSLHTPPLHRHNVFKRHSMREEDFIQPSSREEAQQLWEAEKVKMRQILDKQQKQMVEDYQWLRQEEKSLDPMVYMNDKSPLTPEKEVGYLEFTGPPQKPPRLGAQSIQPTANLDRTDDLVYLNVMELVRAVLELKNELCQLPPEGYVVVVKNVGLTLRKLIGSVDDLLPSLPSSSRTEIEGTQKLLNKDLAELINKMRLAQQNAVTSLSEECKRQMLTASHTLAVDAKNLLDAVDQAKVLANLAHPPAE

Sequence of FAK (Q05397 whole entry): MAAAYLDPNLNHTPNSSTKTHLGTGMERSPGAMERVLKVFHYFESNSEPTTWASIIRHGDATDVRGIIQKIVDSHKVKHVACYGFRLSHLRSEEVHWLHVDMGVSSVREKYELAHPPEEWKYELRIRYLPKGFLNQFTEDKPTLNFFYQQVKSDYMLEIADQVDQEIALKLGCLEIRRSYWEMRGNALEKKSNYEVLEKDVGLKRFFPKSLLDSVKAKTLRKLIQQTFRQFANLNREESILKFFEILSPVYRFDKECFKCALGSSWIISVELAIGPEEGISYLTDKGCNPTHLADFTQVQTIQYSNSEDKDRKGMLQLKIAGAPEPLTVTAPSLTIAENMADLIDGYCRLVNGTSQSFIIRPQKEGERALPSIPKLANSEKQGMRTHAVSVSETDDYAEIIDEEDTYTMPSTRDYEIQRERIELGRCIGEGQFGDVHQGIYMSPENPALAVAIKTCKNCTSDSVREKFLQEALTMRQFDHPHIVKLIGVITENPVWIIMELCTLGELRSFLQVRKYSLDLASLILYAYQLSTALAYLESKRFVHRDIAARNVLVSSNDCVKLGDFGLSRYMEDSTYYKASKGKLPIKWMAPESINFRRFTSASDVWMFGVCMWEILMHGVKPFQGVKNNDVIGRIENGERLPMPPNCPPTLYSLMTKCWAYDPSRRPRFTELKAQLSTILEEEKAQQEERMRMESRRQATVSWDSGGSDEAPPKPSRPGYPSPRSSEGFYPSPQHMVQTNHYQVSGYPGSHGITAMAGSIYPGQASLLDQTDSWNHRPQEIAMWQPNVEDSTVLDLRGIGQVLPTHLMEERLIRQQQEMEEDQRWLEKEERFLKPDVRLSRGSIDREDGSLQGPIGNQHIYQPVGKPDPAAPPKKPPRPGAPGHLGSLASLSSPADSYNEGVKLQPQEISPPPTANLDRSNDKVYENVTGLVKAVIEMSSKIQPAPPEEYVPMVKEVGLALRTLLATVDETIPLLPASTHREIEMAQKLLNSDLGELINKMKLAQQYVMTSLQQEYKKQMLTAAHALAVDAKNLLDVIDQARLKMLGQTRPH

With `CCCCNS(=O)(=O)c1ccccc1Nc1nc(Nc2ccc(N3CCOCC3)cc2OC)nc2c1C(C)(C)CN2` [Example 110, N-butyl-2-(2-(2-methoxy-4-morpholinophenylamino)-5,5-dimethyl-6,7-dihydro-5H-pyrrolo[2,3-d]pyrimidin-4-ylamino)benzenesulfonamide], the IC50 in assay [1] and in assay [2] was less than 0.02 µM throughout.

`COc1cc(N2CCC(N3CCN(C)CC3)CC2)ccc1Nc1nc2c(c(Nc3ccccc3S(=O)(=O)NC(C)C)n1)CCN2` [Example 96, N-isopropyl-2-(2-(2-methoxy-4-(4-(4-methylpiperazin-1-yl)piperidin-1-yl)phenylamino)-6,7-dihydro-5H-pyrrolo[2,3-d]pyrimidin-4-ylamino)benzenesulfonamide]: the concentration for half-maximal inhibition (IC50) in assay [1] and in assay [2] was less than 0.02 µM each time.

With `COc1cc(N2CCOCC2)ccc1Nc1nc2c(c(Nc3ccccc3S(=O)(=O)NC3CCC3)n1)C1(CC1)CN2` [Example 150, N-cyclobutyl-2-(2′-(2-methoxy-4-morpholinophenylamino)-6′,7′-dihydrospiro[cyclopropane-1,5′-pyrrolo[2,3-d]pyrimidine]-4′-ylamino)benzenesulfonamide], the IC50 in assay [1] and in assay [2] was less than 0.02 µM throughout.

Turning to `CC(C)NS(=O)(=O)c1ccccc1Nc1nc(Nc2ccc(C(F)(F)F)cc2)nc2c1CCN2` [Example 61, N-isopropyl-2-(2-(4-(trifluoromethyl)phenylamino)-6,7-dihydro-5H-pyrrolo[2,3-d]pyrimidin-4-ylamino)benzenesulfonamide], the IC50 is less than 1 µM in assay [1] and less than 0.5 µM in assay [2].

For the molecule `CNS(=O)(=O)c1ccccc1Nc1nc(Nc2ccc(N3CCOCC3)cc2OC)nc2c1CCN2` [Example 4, 2-(2-(2-methoxy-4-morpholinophenylamino)-6,7-dihydro-5H-pyrrolo[2,3-d]pyrimidin-4-ylamino)-N-methylbenzenesulfonamide], the values for the 50% inhibitory concentration (IC50) in assay [1] and in assay [2] were less than 0.02 µM and less than 0.05 µM, respectively.

In the case of `CCNS(=O)(=O)c1ccccc1Nc1nc(Nc2ccc(N3CCOCC3)cc2OC)nc2c1CCN2` [Example 43, N-ethyl-2-(2-(2-methoxy-4-morpholinophenylamino)-6,7-dihydro-5H-pyrrolo[2,3-d]pyrimidin-4-ylamino)benzenesulfonamide], the IC50 was less than 0.1 µM in assay [1] and less than 0.02 µM in assay [2].

For `C=CCNS(=O)(=O)c1ccccc1Nc1nc(Nc2ccc(N3CCOCC3)cc2OC)nc2c1C1(CC1)CN2` [Example 144, N-allyl-2-(2′-(2-methoxy-4-morpholinophenylamino)-6′,7′-dihydrospiro[cyclopropane-1,5′-Pyrrolo[2,3-d]pyrimidine]-4′-ylamino)benzenesulfonamide], the IC50 in assay [1] and in assay [2] was less than 0.02 µM each time.

On to `CCCNS(=O)(=O)c1ccccc1Nc1nc(Nc2ccc(N3CCOCC3)cc2OC)nc2c1C(C)(C)CN2` [Example 106, 2-(2-(2-methoxy-4-morpholinophenylamino)-5,5-dimethyl-6,7-dihydro-5H-pyrrolo[2,3-d]pyrimidin-4-ylamino)-N-propylbenzenesulfonamide], for which the IC50 in assay [1] and in assay [2] was less than 0.02 µM throughout.

In the case of `COc1cc(N2CCOCC2)ccc1Nc1nc2c(c(Nc3ccccc3N(C)S(C)(=O)=O)n1)CCN2` [Example 10, N-(2-(2-(2-methoxy-4-morpholinophenylamino)-6,7-dihydro-5H-pyrrolo[2,3-d]pyrimidin-4-ylamino)phenyl)-N-methylmethanesulfonamide], the results for the IC50 in assay [1] and in assay [2] were less than 0.1 µM and less than 0.05 µM, respectively.

Take `COc1cc(N2CCC(N3CCNCC3)CC2)ccc1Nc1nc2c(c(Nc3ccccc3S(=O)(=O)NC(C)C)n1)CCN2` [Example 97, N-isopropyl-2-(2-(2-methoxy-4-(4-(piperazin-1-yl)piperidin-1-yl)phenylamino)-6,7-dihydro-5H-pyrrolo[2,3-d]pyrimidin-4-ylamino)benzenesulfonamide]: the IC50 is less than 0.1 µM in assay [1] and less than 0.5 µM in assay [2].

Consider `COc1cc(N2CCOCC2)ccc1Nc1nc2c(c(Nc3ccccc3S(=O)(=O)NCC(C)C)n1)CCN2` [Example 45, N-isobutyl-2-(2-(2-methoxy-4-morpholinophenylamino)-6,7-dihydro-5H-pyrrolo[2,3-d]pyrimidin-4-ylamino)benzenesulfonamide], for which the IC50 in assay [1] and in assay [2] was less than 0.1 µM in each case.

On to `CNC(=O)c1ccccc1Nc1nc(Nc2cccc3ccoc23)nc2c1CCN2` [Example 19, 2-(2-(benzofuran-7-ylamino)-6,7-dihydro-5H-pyrrolo[2,3-d]pyrimidin-4-ylamino)-N-methylbenzamide], for which the IC50 is less than 0.2 µM in assay [1] and less than 0.1 µM in assay [2].

With `COc1cc(N2CCOCC2)ccc1Nc1nc2c(c(Nc3ccccc3C=O)n1)CCN2` [Example 161, 2-(2-(2-methoxy-4-morpholinophenylamino)-6,7-dihydro-5H-pyrrolo[2,3-d]pyrimidin-4-ylamino)benzaldehyde], the IC50 in assay [1] and in assay [2] was less than 1 µM each time.

In the case of `CC(C)NS(=O)(=O)c1ccccc1Nc1nc(Nc2ccc(N3CCOCC3)nc2)nc2c1CCN2` [Example 57, N-isopropyl-2-(2-(6-morpholinopyridin-3-ylamino)-6,7-dihydro-5H-pyrrolo[2,3-d]pyrimidin-4-ylamino)benzenesulfonamide], the IC50 in assay [1] and in assay [2] was less than 0.02 µM throughout.

As to `COc1cc(N2CCOCC2)ccc1Nc1nc2c(c(Nc3ccccc3S(=O)(=O)Nc3ccccc3)n1)C1(CC1)CN2` [Example 143, 2-(2′-(2-methoxy-4-morpholinophenylamino)-6′,7′-dihydrospiro[cyclopropane-1,5′-pyrrolo[2,3-d]pyrimidine]-4′-ylamino)-N-phenylbenzenesulfonamide], the IC50 was less than 0.1 µM in assay [1] and less than 0.2 µM in assay [2].

As for `CNS(=O)(=O)c1ccccc1Nc1nc(Nc2cc(OC)c(OC)c(OC)c2)nc2c1C1(CC1)CN2` [Example 157, N-methyl-2-(2′-(3,4,5-trimethoxyphenylamino)-6′,7′-dihydrospiro[cyclopropane-1,5′-pyrrolo[2,3-d]pyrimidine]-4′-ylamino)benzenesulfonamide], the IC50 in assay [1] and in assay [2] was less than 0.02 µM throughout.

Take `COc1cc(N2CCOCC2)ccc1Nc1nc2c(c(Nc3ccccc3S(=O)(=O)NCCN(C)C)n1)CCN2` [Example 49, N-(2-(dimethylamino)ethyl)-2-(2-(2-methoxy-4-morpholinophenylamino)-6,7-dihydro-5H-pyrrolo[2,3-d]pyrimidin-4-ylamino)benzenesulfonamide]: the half-inhibitory concentration (IC50) in assay [1] and in assay [2] was less than 0.5 µM in each case.

Turning to `COc1cc(-n2cc(C)nc2C)ccc1Nc1nc2c(c(Nc3ccccc3S(=O)(=O)NC(C)C)n1)CCN2` [Example 90, 2-(2-(4-(2,4-dimethyl-1H-imidazol-1-yl)-2-methoxyphenylamino)-6,7-dihydro-5H-pyrrolo[2,3-d]pyrimidin-4-ylamino)-N-isopropylbenzenesulfonamide], the IC50 in assay [1] and in assay [2] was less than 0.02 µM each time.

On to `CNC(=O)c1ccccc1Nc1nc(Nc2cccc3c2OCCO3)nc2c1CCN2` [Example 15, 2-(2-(2,3-dihydrobenzo[b][1,4]dioxin-5-ylamino)-6,7-dihydro-5H-pyrrolo[2,3-d]pyrimidin-4-ylamino)-N-methylbenzamide], for which the IC50 in assay [1] and in assay [2] was less than 0.5 µM in each case.

Turning to `COCCNS(=O)(=O)c1ccccc1Nc1nc(Nc2ccc(N3CCOCC3)cc2OC)nc2c1CCN2` [Example 50, 2-(2-(2-methoxy-4-morpholinophenylamino)-6,7-dihydro-5H-pyrrolo[2,3-d]pyrimidin-4-ylamino)-N-(2-methoxyethyl)benzenesulfonamide], the concentration for half-maximal inhibition (IC50) in assay [1] and in assay [2] was less than 0.05 µM each time.

For the molecule `COc1cc(N2CCOCC2)ccc1Nc1nc2c(c(Nc3ccccc3S(=O)(=O)NC3CC3)n1)C1(CC1)CN2` [Example 146, N-cyclopropyl-2-(2′-(2-methoxy-4-morpholinophenylamino)-6′,7′-dihydrospiro[cyclopropane-1,5′-pyrrolo[2,3-d]pyrimidine]-4′-ylamino)benzenesulfonamide], the IC50 in assay [1] and in assay [2] was more than 1 µM each time.

Consider `COc1cc(N2CCOCC2)ccc1Nc1nc2c(c(Nc3ccccc3S(N)(=O)=O)n1)CCN2` [Example 41, 2-(2-(2-methoxy-4-morpholinophenylamino)-6,7-dihydro-5H-pyrrolo[2,3-d]pyrimidin-4-ylamino)benzenesulfonamide], for which the IC50 in assay [1] was less than 0.05 µM; in assay [2], less than 0.2 µM.

For `COc1cc(N2CCOCC2)ccc1Nc1nc2c(c(Nc3ccccc3S(=O)(=O)NCC3CC3)n1)C1(CC1)CN2` [Example 140, N-(cyclopropylmethyl)-2-(2′-(2-methoxy-4-morpholinophenylamino)-6′,7′-dihydrospiro[cyclopropane-1,5′-pyrrolo[2,3-d]pyrimidine]-4′-ylamino)benzenesulfonamide], the IC50 in assay [1] and in assay [2] was less than 0.02 µM throughout.

Consider `COc1cc(N2CCOCC2)ccc1Nc1nc2c(c(Nc3ccccc3S(=O)(=O)NCC(C)C)n1)C1(CC1)CN2` [Example 137, N-isobutyl-2-(2′-(2-methoxy-4-morpholinophenylamino)-6′,7′-dihydrospiro[cyclopropane-1,5′-pyrrolo[2,3-d]pyrimidine]-4′-ylamino)benzenesulfonamide], for which the IC50 in assay [1] and in assay [2] was less than 0.02 µM throughout.

One may read the IC50 as the concentration at which inhibition is half-maximal.

The values are drawn from patent publication US9428508B2, “2,4-diamino-6,7-dihydro-5H-pyrrolo[2,3]pyrimidine derivatives as FAK/Pyk2 inhibitors” (Centaurus BioPharma Co., Ltd., priority 2011, dated 2016).
